Here are results for 3 compounds from US7078499B2, “Nucleotide analogues comprising a reporter moiety and a polymerase enzyme blocking moiety” (GE Healthcare UK Limited, priority 2000, dated 2006).

What all share (assay type): biochemical
For one test, the target named is T1, Pfu DNA polymerase (Pyrococcus furiosus, UniProt P61875).
T1 construct: purchased Stratagene Ltd
T1 sequence (P61875 1-775): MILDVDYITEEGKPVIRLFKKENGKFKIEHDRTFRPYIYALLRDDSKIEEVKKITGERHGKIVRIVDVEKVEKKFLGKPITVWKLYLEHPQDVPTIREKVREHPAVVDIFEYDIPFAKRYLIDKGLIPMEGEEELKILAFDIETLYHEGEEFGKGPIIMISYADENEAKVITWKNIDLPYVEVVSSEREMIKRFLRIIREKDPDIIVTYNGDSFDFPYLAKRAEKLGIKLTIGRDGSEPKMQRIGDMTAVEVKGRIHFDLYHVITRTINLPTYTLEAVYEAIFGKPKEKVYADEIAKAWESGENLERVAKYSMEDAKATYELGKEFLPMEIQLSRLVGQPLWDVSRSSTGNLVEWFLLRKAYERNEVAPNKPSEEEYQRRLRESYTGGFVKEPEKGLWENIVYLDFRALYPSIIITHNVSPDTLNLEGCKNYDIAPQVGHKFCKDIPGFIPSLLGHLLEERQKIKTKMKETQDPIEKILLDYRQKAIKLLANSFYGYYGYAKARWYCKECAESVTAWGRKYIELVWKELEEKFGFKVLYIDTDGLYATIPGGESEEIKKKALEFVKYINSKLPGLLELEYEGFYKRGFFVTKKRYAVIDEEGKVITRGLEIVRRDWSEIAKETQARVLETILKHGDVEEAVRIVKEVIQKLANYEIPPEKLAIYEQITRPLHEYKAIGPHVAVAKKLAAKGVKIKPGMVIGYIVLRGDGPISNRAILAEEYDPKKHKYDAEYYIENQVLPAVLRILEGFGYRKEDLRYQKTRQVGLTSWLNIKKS
The experiment in a line: Thermostable DNA polymerase primer extension, Pfu. Set-up: key: −: No extension within assay time; +/−: up to 25% of primer extended by at least one base within assay time; +: up to 50% of primer extended by at least one base within assay time; ++: up to 75% of primer extended by at least one base within assay time; +++: essentially all primer extended by at least one base within assay time. The note with it: DNA template, TTP replaced entirely by test compound, 45° C. for 20–40 minutes. As for the experimental part:
(§1) DNA polymerase assays were performed using Sequence 1 as primer and Sequence 2 as template. • Sequence 1 5′[Cy3]TAACTCATTAACAGGATC 3′ • Sequence 2 5′AT TCGCGGTATTCTGGTATGAAGCTTTTAGATCCTGTTAATGAGTTA GTA3′
(§2) The template (Sequence 2) was designed such that the base (underlined) immediately adjacent to the 3′ end of the hybridised primer is complementary to the nucleotide test compound. Nucleotide test compounds were compounds (6) (4′-C-(glycylaminomethyl)thymidine triphosphate), (8) (4′-C-(N-trifluoroacetyaminomethyl)thymidine triphosphate) and (9) (4′-C-(aminomethyl)thymidine triphosphate) as described above.
(§3) Primer extension reactions were performed using the above primers in the presence of 40 to 80 μM of nucleotide triphosphates. Positive control reactions contained all four native nucleotide triphosphates. For the other reactions the TTP was replaced with either a 2:1 ratio of […] for the terminator control, or entirely by the test compound The enzymes were used at a final concentration of 0.175 units/μl and a magnesium ion concentration of 2.5 mM in buffers supplied by the manufacturer. The primer and template concentrations were 0.5 pmol/μl and 2 pmol/μl respectively.
(§4) Extension reactions with thermophilic enzymes were performed by initially denaturing the fully assembled reactions at 70° C. for 5 min. followed by 45° C. for 20–40 minutes. The following enzymes were used: Taq DNA polymerase (Taq); Thermosequenase (TS); Thermosequenase II (TSII); Thermosequenase E (TSE), Tfl DNA polymerase (Tfl); Tth DNA polymerase (Tth), deltaTts DNA polymerase (deltaTts), deltaTts D DNA polymerase (dettaTTSD) (all from APBiotech); Pfu DNA polymerase (Pfu) (Stratagene Ltd); Vent™ DNA polymerase (Vent) (New England Biolabs).
The reactions were stopped by adding a 0.5 volume aliquot of 80% formamide containing 0.1% (w/v) bromophenol blue and 0.1% (w/v) cresol blue. […]
Gels were scanned for Cy3 fluorescence on a Molecular Dynamics Fluorimager and the data analysed using Molecular Dynamics ImageQuant 5 software. […]

In the next test the test system is deltaTts DNA polymerase. The experiment in a line: Thermostable DNA polymerase primer extension, delta Tts. Also on record: key to result of incorporation (termination / further chain extension): T: Incorporation results in termination; E: Incorporation permits further chain extension; T/E: Predominant product is primer extended by one base, but evidence of some further extension also observed. The note with it: DNA template, 45° C. for 20–40 minutes; for primer extended by at least one base within assay time (grade): TTP replaced entirely by test compound. As for the experimental part:
as §1, §2, §3, §4
(§5) The reactions were stopped by adding a 0.5 volume aliquot of 80% formamide containing 0.1% (w/v) bromophenol blue and 0.1% (w/v) cresol blue. The reaction products were separated by denaturing gel electrophoresis at a constant power of 45 W on 16% polyacrylamide gels containing 50% urea.
(§6) Gels were scanned for Cy3 fluorescence on a Molecular Dynamics Fluorimager and the data analysed using Molecular Dynamics ImageQuant 5 software.
(§7) The incorporation of a test nucleotide triphosphate results in the appearance on a polyacrylamide gel of a single band corresponding to a single base extension product. If, however, the enzyme adds additional bases then further bands would be observed that corresponded to either the full-length product or positions of other complementary bases in the template.

The next test deals with SAV RT. Description: Mesophilic reverse transcriptase reaction, SAV RT. Set-up: key to result of incorporation (termination / further chain extension): T: Incorporation results in termination; E: Incorporation permits further chain extension; T/E: Predominant product is primer extended by one base, but evidence of some further extension also observed. The note with it: RNA template, final enzyme concentration of 4 units/μl. As for the experimental part:
as §1, §2, §3
Extension reactions preformed with mesophilic polymerases were carried out by mixing all the components of the reaction except the enzyme and heating to 70° C. for 5 min. After the reactions had cooled to room temperature 0.175 units of the enzyme were added and the reactions heated to 37° C. for 20–40 minutes. The following enzymes were used: T7 DNA polymerase (T7); Sequenase 2™ (Seq); Klenow fragment of DNA polymerase 1 (Klen); phi-29 DNA polymerase (Phi-29); T4 DNA polymerase (T4) (all from AP Biotech) and Bst DNA polymerase (Bst) (Cambio Ltd).
Reverse transcriptase reactions were performed essentially as described above for thermophilic and mesophilic enzymes. The template for these reactions was the RNA equivalent of sequence 2. All the thermophilic enzymes were assayed in Tth reaction buffer (Cambio Ltd, Cambridge UK) containing 2.5 mM Manganese ions. The following enzymes were used: Thermosequenase (TS1); Thermosequenase II (TSII); delta Tts DNA polymerase (deltaTts); delta Tts D DNA polymerase (deltaTtsD) (all from APBiotech); Retrotherm reverse transcriptase (Retroth) (Cambio Ltd); Tth DNA polymerase (Tth) (Cambio Ltd.).
Mesophilic reverse transcriptases (AMV RT; MuLV RT; SAV RT and HIV RT all from APBiotech) were assayed in their respective buffers with a final enzyme concentration of 4 units/μl.
as §5, §6, §7

On to “4′-C-(Aminomethyl)thymidine triphosphate [compound (9)]”, for which the “primer extended by at least one base within assay time (grade)” value (“primer extended” for short) on Pfu DNA polymerase is “−”; in the test on deltaTts DNA polymerase, “+T”; with SAV RT it was “++ (up to 75% of primer extended by at least one base within assay time)”. Also, the results for the “result of incorporation (termination / further chain extension)” value in the test with deltaTts DNA polymerase and with SAV RT were “T” and “E”, respectively.

Consider “4′-C-(Glycylaminomethyl)thymidine triphosphate [compound (6)]”, for which the “primer extended” value is “−” at Pfu DNA polymerase, “+ (up to 50% of primer extended by at least one base within assay time)” with deltaTts DNA polymerase and “+ (up to 50% of primer extended by at least one base within assay time)” in the test with SAV RT. Further, the “result of incorporation (termination / further chain extension)” value in the test on deltaTts DNA polymerase is recorded as “T”; with SAV RT, “E?”.

Turning to `Cc1cn([C@H]2C[C@H](O)[C@@](CNC(=O)C(F)(F)F)(COP(=O)(O)OP(=O)(O)OP(=O)(O)O)O2)c(=O)[nH]c1=O` [compound (8), 4′-C-(N-trifluoroacetylaminomethyl)thymidine triphosphate], the “primer extended” value was “−” at Pfu DNA polymerase, “+ (up to 50% of primer extended by at least one base within assay time)” with deltaTts DNA polymerase and “++ (up to 75% of primer extended by at least one base within assay time)” in the test with SAV RT. Also, the “result of incorporation (termination / further chain extension)” value with deltaTts DNA polymerase is listed as “T”; with SAV RT, “E”.
